“And” between values parts separate entries of the source, which are not always exact repeats. Equal values may be shown once. “Also recorded” adds a separate entry of the source. Read-outs that look alike come from different tables or passages of the source.

The values that follow come from patent publication US20260364213A1, “RADIOLABELED COMPOUNDS OF TRIMETHOPRIM AND USES THEREOF” (THE TRUSTEES OF THE UNIVERSITY OF PENNSYLVANIA, priority 2023, published 2026).

Data set [1] deals with I45 and SKOV3 cells. Put plainly: Cytotoxicity in wild-type and eDHFR-YFP-expressing I45 and SKOV3 cells. The data set is classed as cell-based, human. On the procedure: After 72 hours of incubation, the surviving fraction of the cells was quantified using CellTiter-Glo (Promega #G9243). See, Makvandi, Molecular cancer therapeutics. […] The assay was performed three times in triplicates. […] See, Lee, Journal of nuclear medicine.

In data set [2] the target is T1, eDHFR-YFP (Escherichia coli, UniProt P0ABQ4).
T1 sequence (P0ABQ4 1-159): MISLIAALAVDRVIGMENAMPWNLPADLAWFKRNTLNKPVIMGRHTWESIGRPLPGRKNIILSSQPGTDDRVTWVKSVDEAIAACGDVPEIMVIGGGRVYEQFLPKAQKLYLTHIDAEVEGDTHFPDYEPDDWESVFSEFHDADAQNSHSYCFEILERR
Put plainly: Radioligand binding to eDHFR-YFP expressing cells. More on the design: species or system E. coli. Conditions: read-out: Kd. On the procedure: Due to the high specific activity of [^211At]At-TMP that limits its working concentration to pM range, [^125I]I-TMP was used for saturation binding studies to determine Bmax.
eDHFR-YFP-positive I45 and SKOV3 cells were plated on 96-well plates (Corning #9102) at the density of 25,000 cells/well and 40,000 cells/well, respectively, in complete growth media 24 hours before the assay. […] After incubation at 37 °C for 90 minutes, the wells were aspirated and washed twice with ice-cold PBS. The radioactivity in each well was measured with a Perkin Elmer Wizard gamma counter. The assay was performed three times in triplicates. […] See, Swillens, Molecular pharmacology. 1995; 47(6):1197-203. The corresponding EC50 values were plotted against the receptor concentration/2 to determine the Kd. See, Hulme, British journal of pharmacology. 2010; 161(6):1219-37. The Bmax values were correlated with the total YFP florescence from the wells, with a correction factor of 2.5 and 2.2 for membrane-bound eDHFR-YFP in I45 and SKOV3, respectively, in order to account for decreased fluorescence per molecule from addition of the membrane localization signal to YFP. See, Wu, Science. 2005; 310(5746):310-4; and Bakholdina, Molecules. 2021; 26(13).
For determination of the Kd of [^211At]At-TMP, the binding assay protocol was repeated in I45 and SKOV3 cells expressing cytoplasmic eDHFR-YFP, using 150 μL of 0.06-60 nM [^125I]I-TMP±10 μM TMP for half of each 96-well plate and 50-260 μL of […] [^211At]At-TMP±10 μM TMP for the remaining half. The Bmax of each plate determined from [^125I]I-TMP binding was divided by the assay volumes used for [^211At]At-TMP to calculate the total receptor concentration ([RT]) in each [^211At]At-TMP well. The ligand depletion (δ) in each [^211At]At-TMP well was obtained by dividing the bound radioactivity by total added radioactivity. The assay was performed four times in triplicates. As derived in Supplemental Methods 1, δ^−1 was plotted against [RT]^−1 to determine the Kd as the slope of the linear best-fit line.
Supplemental Method 1. Measurement of the dissociation constant (Kd) of [^211At]At-TMP binding to eDHFR under non-saturating, ligand-depleting conditions. When [Ligand]<<Kd, ligand depletion (6) at equilibrium is
where [R] is the free receptor concentration and [RT]is the total receptor concentration. Since 6 is non-zero, taking the reciprocal of both sides of the equation yields
[formula] • If a δ^−1 vs. [RT]^−1 graph where y=δ^−1 and x=[RT]^−1 is plot,
Therefore, the slope of the linear best-fit line represents the Kd and the y-intercept is 1.

The target in data set [3] is T2, eDHFR (Escherichia coli, UniProt P0ABQ4).
T2 sequence (P0ABQ4 1-159): T1 sequence (P0ABQ4 1-159)
Conditions: HEK293T-eDHFR-YFP vs HEK 293 WT; 0.037 MBq, 1 hour; 60 min.

Data set [4] has as its system OVCAR8-eDHFR-Luc cells. Put plainly: Kill assay (MTT) in OVCAR8-eDHFR-Luc cells. Type of data set: cell-based, human. Conditions: 18.5 MBq, 1 h; viability to day 12. On the procedure:
Following the same uptake protocol till washing after the third wash the cells were counted using cell counter and they were diluted to generate even number of cells/mL. […] We've applied the same blocked conditions used in the uptake assay. […] Then cells will be re-distributed into 96 well plates (2,000 cells/well) with fresh media to monitor cell proliferation by MTT assay on days 1, 3, 7 and 10. A total of 9 wells (3×3) were measured on the plate per sample per time point. To complete the assay cell media was removed and replaced with 50 μL of serum free media and 50 μL of MTT reagent. The plates were covered with tin foil and incubated at 37 °C for 3 hours. The plates were shaken at 200 rpm at 37 °C for 15 min. Using the microplate plate reader, sample absorbance was measured at 590 nm for 600 ms. Controls included [^131I]NaI treated cells and blocking with 10 μM parent TMP (unlabeled). An analogous procedure was used for the OVCAR8-eDHFR-Luc kill assay with different doses (1.85-37 MBq) and treatment times.
To investigate the therapeutic potential of m[^131I]mI-TMP 5b in tumor cell lines, OVCAR8 eDHFR+ cells were exposed to varying doses (ranging from 1.85-37 MBq) of the radiotracer of 5b at different incubation times. Different conditions were employed to assess the selective therapeutic effect of the radio tracer on eDHFR+ cells. To determine the specific killing of eDHFR+ tumor cells, blocked conditions were analyzed. The cell viability of compound 5b-treated cells was also compared with the cells exposed to [^131I]I—Na. Additionally, untreated cells were used as controls. The MTT assay was used to measure the cell viability of the cells under the aforementioned conditions on days 1, 3, 7, and 12.
OVCAR8-eDHFR-Luc+ cells were treated with 1.85 and 18.5 MBq of m[^131I]mI-TMP 5b and [^131I]I—Na, incubated for 1 hour. […] The cell viability of the compound 5b-treated cells was similar to cells under blocked, [^131I]NaI, and no drug conditions. See, FIG. 2A. […] See, FIG. 2B. Based on the results obtained, a continued dose escalation was considered to better understand the therapeutic window. Finally, OVCAR_eDHFR+ cells were tested with 37 MBq dose of m[^131I]mI-TMP.

Data set [5] can be described thus: In vitro stability in RPMI 1640 medium. Type of data set: physicochemical. Conditions: 37 °C, up to 6 hours, radio-HPLC. Here is the method:
The specific activity of [^211At]At-TMP and [^125I]I-TMP was determined by comparison of radioactivity to the area under 288-nm ultraviolet light peak on radio-HPLC. The in vitro stability of [^211At]At-TMP was examined with incubation in Roswell Park Memorial Institute (RPMI) 1640 medium at 37 °C for up to 6 hours, followed by radio-HPLC analysis.

The test system of data set [6] is IMR5 cells. The data set is described as follows: Cytotoxicity in IMR5 cells with subcellular eDHFR-YFP. The data set is classed as cell-based, human. Here is the method: Using standard cloning procedures and DNA sequence synthesis, the recombinant eDHFR protein was modified in the following ways. First, the eDHFR nucleotide sequence was extended with a yellow fluorescent protein (YFP) domain at the C-terminus to construct a fusion eDHFR-YFP protein. See, Sellmyer, Mol Ther 2020; 28:42-51. Then, one of the following localization domains was added: simian virus 40 nuclear localization signal (NLS) at the N-terminus, human immunodeficiency virus Rev protein nuclear export signal (NES) at the C-terminus, and Saccharolobus solfataricus P2 DNA-binding domain 7d (DNAB) at the N-terminus. See, Kobayashi, Antimicrob Agents Chemother 2006; 50:1118-1119; and Kalichuk, Sci Rep 2016; 6:37274. The resulting library of pUC57 plasmids, each containing one of NLS-eDHFR-YFP, eDHFR-YFP-NES, and DNAB-eDHFR-YFP, were successfully cloned into a lentiviral vector. The lentiviral plasmids were introduced into HEK293T cells for viral production and isolation.
Then, three human cancer cell lines were cultured: HCT116 (colorectal cancer), IMR5 (neuroblastoma), and SKOV3 (ovarian cancer). They were transfected with the three lentiviral constructs for expression of NLS-eDHFR-YFP, eDHFR-YFP-NES, and DNAB-eDHFR-YFP, resulting in nine cell lines in total. Subcellular localization of eDHFR-YFP in the cell lines was verified with fluorescence microscopy.
Cytotoxicity experiments were performed as follows: wild-type IMR5 cells as well as those expressing eDHFR-YFP localized to the DNA, nucleus, and cytoplasm were treated with various concentrations of ^211At-PAB-TMP for 72 hours. The survival fraction for each treatment condition was measured with luminescent cell viability assay.
The resulting survival vs. dose curves were analyzed to determine effective concentrations for 50% reduction in cell viability (EC50). See, FIGS. 16A-16C. […] See, FIGS. 16A-16C. […] 6; 20(7): 1752-1755.

For data set [7], the target named is T2, eDHFR. The data set is classed as cell-based. Conditions: for affinity for eDHFR binding in cells: HCT116 cells, non-radiolabeled, vs para-benzyl-iodo-TMP; for EC50: read-out: EC50 for eDHFR binding, HCT-116 cells, tsLuc-DD-DHFR, compounds not radiolabeled.
Data set [8] is described as follows: Serum stability in FBS. Type of data set: in vitro ADME. Conditions: non-radioactive compound, FBS, 37 °C, 72 h. On the procedure: In vitro serum stability of was performed by adding the [^131I]mI-TMP (50 μL, 1.85 MBq) to fetal bovine serum (500 μL). The mixture was then incubated in a ThermoMixer (800 rpm) at 37 °C, and deiodination was analyzed by radio-TLC (10% NH40Ac:MeOH=3:7) at 0, 24, and 72 h. In this condition, free I-131 moved to solvent front whereas intact [^131I]I-TMP remained at the origin.

Data set [9] deals with T2, eDHFR. The data set is described as follows: Differential scanning fluorimetry (thermal shift assay). The data set is classed as binding. Conditions: 0.1 mg/mL protein, 10 mM stock compound, 20-95 °C ramp. Here is the method: Purified protein is diluted to 0.1 mg/mL protein in 500 μL in mild buffer, 25 mM HEPES pH=7.5, 200-500 mM NaCl, DTT. 17 μL of the 0.1 mg/mL protein sample is aliquoted into an opaque white 384 well PCR plate. Then 2 μL of stabilizing additive or 1 μL additive and 1 μL of concentrated drug (10 mM TMP or 10 mM cold mI-TMP or vehicle, plus 1 μL of 1×SYPRO Orange dye was added and the total well volume is 20 μL. The plate is sealed with clear optical cover, protect it from light with foil, and let it incubate for 5 minutes. Then the plate is centrifuged at 3,600×g for 2 minutes. The plate is analyzed on RT-PCR machine using a temperature-ramp method that ranges from 20-95 °C.
A general note: In DSF a fluorescence change marks the thermal transition of the protein.

Consider `COc1cc(Cc2cnc(N)nc2N)cc(OC)c1OC` [TMP, trimethoprim], for which the “cytotoxicity at the lowest TMP concentration” value in [1] (40 μM, all cell types) is recorded as “non-toxic”. The “cytotoxicity from non-radiolabeled TMP in cells expressing membrane-bound eDHFR-YFP” value in data set [1] (72 h) was “higher cytotoxicity”.

For the molecule `COc1cc(Cc2cnc(N)nc2N)cc([125I])c1OC` [[^125I]mI-TMP, 5-(3-iodo-4,5-dimethoxybenzyl)pyrimidine-2,4-diamine], the Kd (commonly the concentration at which binding is half-saturated) in [2] (I45 cells) was found to be 0.65 ± 0.11 nM; in data set [2] (SKOV3 cells) it was 0.13 ± 0.17 nM. Besides, the “uptake of the radiotracer in eDHFR+ cells relative to WT cells” value in [3] was ~ 50 fold and ~ 30 fold.

Consider `[131I-].[Na+]` [[^131I]I—Na, reference compound], for which, in data set [4], the “cytotoxic effect / cell viability” value was “showed viability and significant growth”.

On to `COc1cc(Cc2cnc(N)nc2N)cc([211At])c1OC` [[^211At]At-TMP], for which, in data set [5], the “in vitro stability in aqueous media” value is “stability of [^211At]TMP in aqueous media for up to 6 hours”.

For the molecule `COc1cc(Cc2cnc(N)nc2N)cc(OC)c1OCc1ccc([211At])cc1` [^211At-PAB-TMP, ^211At-para-astatobenzyl-trimethoprim], the “cytotoxicity by eDHFR-YFP subcellular location” value in data set [6] (IMR5 cells, 72 hours, luminescent viability) was “Higher cytotoxicity was seen with increasing proximity to DNA, resulting in significantly lower EC50 values; also recorded: highest in the IMR5 cells expressing DNA-bound eDHFR-YFP, followed by nuclear and cytoplasmic eDHFR-YFP”.

For `O=C1NCCn2c(-c3ccc([211At])cc3)nc3cccc1c32` [^211At-PTT, reference compound], in [6] (positive control), the “difference in cytotoxicity among the eDHFR IMR5 cells” value is recorded as “no difference in cellular toxicity; also recorded: did not result in difference in cytotoxicity among the IMR5 cells”.

For the molecule `COc1cccc2c1C(=O)c1c(O)c3c(c(O)c1C2=O)C[C@@](O)(C(=O)CO)C[C@@H]3O[C@H]1C[C@H](N)[C@H](O)[C@H](C)O1` [doxorubicin, reference compound], the “cytotoxicity of doxorubicin, wild-type vs eDHFR-YFP-expressing cells” value in [1] (72 h, 10 nM-1 μM) is “comparable cytotoxicity; also recorded: comparable chemosensitivity”.

Turning to `COc1cc(Cc2cnc(N)nc2N)cc(Br)c1OC` [mBr-TMP], in data set [7], the “affinity for eDHFR binding in cells” value is “higher affinity for eDHFR binding in cells than the para-benzyl-iodo-TMP” and the concentration giving a half-maximal response (EC50) (commonly the concentration needed to bring the measured effect to its halfway point) amounted to 5 nM.

Take `COc1cc(Cc2cnc(N)nc2N)cc(I)c1OC` [mI-TMP, 5-(3-iodo-4,5-dimethoxybenzyl)pyrimidine-2,4-diamine]: the “stability in FBS by LCMS” value in data set [8] is listed as “confirmed the stability of TMP-I (3a) in FBS”. For the same molecule, the “stabilization of eDHFR in thermal shift assay (DSF)” value in data set [9] is listed as “stabilizes eDHFR as TMP”. The “stabilization of eDHFR in thermal shift assay (DSF)” value in data set [9] (listed as TMP-I (3b)) is recorded as “strongly stabilizes eDHFR, similar to TMP”. For the same molecule, in data set [7], the “affinity for eDHFR binding in cells” value is on record as “higher affinity for eDHFR binding in cells than the para-benzyl-iodo-TMP” and the concentration for a half-maximal effect (EC50) came out at 5 nM.

For the molecule “^211At-para-astatobenzyl-trimethoprim [^211At-PAB-TMP]”, the “killing of eDHFR expressing neuroblastoma cells” value in [6] was “enhanced killing of eDHFR expressing neuroblastoma cells”.
